Experimental data reported in patent US11225480B2, “Malic enzyme inhibitors” (SUN PHARMA ADVANCED RESEARCH COMPANY LTD, priority 2019, dated 2022).

Tests used:
Type in all cases: biochemical
human ME2 enzyme = human ME2 enzyme (Homo sapiens, UniProt P23368); test: ME2 inhibition assay (diaphorase/resazurin coupled fluorescence); settings: 10 μM compound concentration; read-out: Malic Enzyme 2 % inhibition (10 μM)
Outline: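 Human ME2 (10 μL of 60 nM) was preincubated 5 min at room temperature with compound (10 μM) in 50 mM Tris-HCl pH 7.5, 10 mM MnCl2, 7 mM L-malate, 50 μM resazurin and 0.025 mg/ml diaphorase. The reaction was started with 10 μL of 2 mM β-NAD+ and run 2 hours at room temperature. Resorufin fluorescence (ex 540/em 600 nm) was normalized to enzyme-only (100%) and no-enzyme (0%) controls as % activity.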

human ME1 enzyme = target: T1, human ME1 enzyme (Homo sapiens, UniProt P48163); test: ME1 inhibition assay (diaphorase/resazurin coupled fluorescence); settings: 10 μM compound concentration; read-out: Malic Enzyme 1 % inhibition (10 μM)
T1 sequence (P48163 1-572): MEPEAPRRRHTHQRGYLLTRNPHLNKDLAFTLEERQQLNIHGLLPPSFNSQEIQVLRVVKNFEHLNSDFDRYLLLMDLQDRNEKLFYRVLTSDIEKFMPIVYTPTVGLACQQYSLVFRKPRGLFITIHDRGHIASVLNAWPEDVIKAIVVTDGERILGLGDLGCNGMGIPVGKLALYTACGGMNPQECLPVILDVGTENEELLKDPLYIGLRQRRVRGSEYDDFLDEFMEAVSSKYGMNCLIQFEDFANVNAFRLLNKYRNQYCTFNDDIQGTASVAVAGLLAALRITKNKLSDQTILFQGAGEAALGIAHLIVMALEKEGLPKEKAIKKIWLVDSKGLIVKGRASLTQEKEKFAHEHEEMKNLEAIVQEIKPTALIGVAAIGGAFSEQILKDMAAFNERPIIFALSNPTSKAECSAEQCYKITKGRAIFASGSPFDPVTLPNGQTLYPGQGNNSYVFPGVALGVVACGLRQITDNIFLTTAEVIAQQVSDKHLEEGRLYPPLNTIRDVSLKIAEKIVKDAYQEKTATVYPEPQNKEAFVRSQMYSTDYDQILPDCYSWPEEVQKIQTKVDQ
Outline: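 Compounds at 10 μM preincubated 15 min in 50 mM Tris-HCl pH 7.5, 10 mM MnCl2, 2 mM L-malate, 10 μM resazurin, 0.01 mg/ml diaphorase, then human ME1 added for 5 min; reaction started with NADP+ and run 2 h at room temperature. Resorufin fluorescence (ex 540/em 600 nm) normalized to enzyme-only (100%) and no-enzyme (0%) controls.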

human ME3 enzyme = target: T2, human ME3 enzyme (Homo sapiens, UniProt Q16798); test: ME3 inhibition assay (diaphorase/resazurin coupled fluorescence); settings: 10 μM compound concentration; read-out: Malic Enzyme 3 % inhibition (10 μM)
T2 sequence (Q16798 1-604): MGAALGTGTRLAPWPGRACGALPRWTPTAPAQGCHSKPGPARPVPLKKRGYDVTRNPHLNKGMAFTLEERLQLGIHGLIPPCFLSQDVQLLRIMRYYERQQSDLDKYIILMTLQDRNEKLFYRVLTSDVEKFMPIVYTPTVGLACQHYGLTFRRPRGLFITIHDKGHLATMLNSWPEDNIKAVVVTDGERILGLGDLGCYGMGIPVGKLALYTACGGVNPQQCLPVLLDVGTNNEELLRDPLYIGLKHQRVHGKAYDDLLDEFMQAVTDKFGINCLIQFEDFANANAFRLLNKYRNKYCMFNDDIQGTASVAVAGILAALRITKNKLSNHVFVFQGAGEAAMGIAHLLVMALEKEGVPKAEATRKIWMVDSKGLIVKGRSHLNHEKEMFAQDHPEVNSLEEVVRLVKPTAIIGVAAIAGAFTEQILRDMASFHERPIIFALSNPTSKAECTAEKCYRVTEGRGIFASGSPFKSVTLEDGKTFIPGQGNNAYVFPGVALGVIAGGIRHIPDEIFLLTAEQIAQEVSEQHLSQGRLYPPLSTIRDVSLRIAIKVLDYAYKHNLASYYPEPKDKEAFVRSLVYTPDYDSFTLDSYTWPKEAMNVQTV
Outline: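 Coupled read-out: NADPH made by human ME3 (20 nM stock) drives diaphorase conversion of resazurin (50 μM) to resorufin; buffer 50 mM Tris-HCl pH 7.5, 10 mM MnCl2, 3 mM L-malate.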

human ME2 enzyme, sequence (P23368 19-584): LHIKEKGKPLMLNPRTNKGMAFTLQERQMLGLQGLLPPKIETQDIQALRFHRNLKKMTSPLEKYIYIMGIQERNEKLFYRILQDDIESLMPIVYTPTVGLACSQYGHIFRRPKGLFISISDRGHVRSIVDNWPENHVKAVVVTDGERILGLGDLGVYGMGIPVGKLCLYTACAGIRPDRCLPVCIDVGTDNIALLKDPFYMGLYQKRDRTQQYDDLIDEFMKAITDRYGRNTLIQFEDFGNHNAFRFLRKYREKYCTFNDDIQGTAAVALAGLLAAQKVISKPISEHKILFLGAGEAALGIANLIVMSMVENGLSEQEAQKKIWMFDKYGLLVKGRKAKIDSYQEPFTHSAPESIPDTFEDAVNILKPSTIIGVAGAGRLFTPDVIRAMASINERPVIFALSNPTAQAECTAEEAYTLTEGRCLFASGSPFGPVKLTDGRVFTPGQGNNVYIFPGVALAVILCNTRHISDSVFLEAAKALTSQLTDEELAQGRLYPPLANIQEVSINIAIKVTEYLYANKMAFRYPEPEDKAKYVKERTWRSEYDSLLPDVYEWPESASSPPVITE

O=C(CSc1ccccc1Br)N1CCN(c2ccc(O)cn2)CC1 [I.143, 2-(2-Bromo-phenylsulfanyl)-1-[4-(5-hydroxy-pyridin-2-yl)-piperazin-1-yl]-ethanone]
inhibition at 10 µM (human ME2 enzyme): > 90%
inhibition at 10 µM (human ME1 enzyme): > 90%
inhibition at 10 µM (human ME3 enzyme): > 90%

O=C(CCc1ccncc1)N1CCN(c2ccc(O)cn2)CC1 [I.66, 1-[4-(5-Hydroxy-pyridin-2-yl)-piperazin-1-yl]-3-pyridin-4-yl-propan-1-one]
inhibition at 10 µM (human ME2 enzyme): 70 to 89%
inhibition at 10 µM (human ME1 enzyme): 70 to 89%
inhibition at 10 µM (human ME3 enzyme): > 90%

O=C(CSc1ccc(F)cc1)N1CCN(c2ccc(O)cn2)CC1 [I.163, 2-(4-Fluoro-phenyl-sulfanyl)-1-[4-(5-hydroxy-pyridin-2-yl)-piperazin-1-yl]-ethanone]
inhibition at 10 µM (human ME2 enzyme): > 90%
inhibition at 10 µM (human ME1 enzyme): > 90%
inhibition at 10 µM (human ME3 enzyme): > 90%

O=C(c1ccnc(N2CCCCC2)c1)N1CCN(c2ccc(O)cc2)CC1 [I.50, [4-(4-Hydroxy-phenyl)-piperazin-1-yl]-[2-(1-piperidyl)-4-pyridyl]-methanone]
inhibition at 10 µM (human ME2 enzyme): > 90%
inhibition at 10 µM (human ME1 enzyme): > 90%
inhibition at 10 µM (human ME3 enzyme): > 90%

O=C([C@@H]1C[C@H]1c1ccccc1)N1CCN(c2ccc(O)cn2)CC1 (stereo in doubt) [I.133, [4-(5-hydroxypyridin-2-yl)-piperazin-1-yl]-((1R,2R)-2-phenylcyclopropyl)-methanone]
inhibition at 10 µM (human ME2 enzyme): > 90%
inhibition at 10 µM (human ME1 enzyme): > 90%
inhibition at 10 µM (human ME3 enzyme): > 90%
